The target in one assay is D2 dopamine receptor (Rattus norvegicus, UniProt P61169). As to the kind of experiment: D2 dopamine receptor binding study with 3H-spiroperiodol in homogenized limbic brain tissue. To be noted: read-out: Affinity for D2 Receptor % Inhibition. As for the experimental part: The D2 dopamine receptor binding study was in accordance with a modification of the procedure of Field et al., Brain Res., 136, pp. 578-584 (1977) and Yamamura et al., eds., Neurotransmitter Receptor Binding, Raven Press, N.Y. (1978), wherein homogenized limbic brain tissue is incubated with ^3H-spiroperiodol and various concentrations of test compounds, filtered and washed and shaken with Hydrofluoro scintillation cocktail (National Diagnostics) and counted in a Packard 460CD scintillation counter.
Chain of D2 dopamine receptor (P61169 whole entry): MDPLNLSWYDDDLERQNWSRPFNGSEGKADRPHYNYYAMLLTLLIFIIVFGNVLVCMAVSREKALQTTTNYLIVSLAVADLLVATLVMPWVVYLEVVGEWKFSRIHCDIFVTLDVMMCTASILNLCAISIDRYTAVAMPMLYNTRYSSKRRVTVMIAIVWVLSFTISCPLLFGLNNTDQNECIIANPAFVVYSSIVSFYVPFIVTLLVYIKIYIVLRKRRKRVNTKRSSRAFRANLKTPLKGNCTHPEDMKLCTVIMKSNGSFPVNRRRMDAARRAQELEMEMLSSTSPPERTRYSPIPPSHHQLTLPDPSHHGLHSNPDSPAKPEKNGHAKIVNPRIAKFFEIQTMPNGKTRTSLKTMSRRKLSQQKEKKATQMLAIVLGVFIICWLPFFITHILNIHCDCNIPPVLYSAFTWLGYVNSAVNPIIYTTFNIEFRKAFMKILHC

Assay [1] concerns the target T1, 5-HT1A serotonin receptor (Rattus norvegicus, UniProt P19327).
T1 sequence (P19327 1-422): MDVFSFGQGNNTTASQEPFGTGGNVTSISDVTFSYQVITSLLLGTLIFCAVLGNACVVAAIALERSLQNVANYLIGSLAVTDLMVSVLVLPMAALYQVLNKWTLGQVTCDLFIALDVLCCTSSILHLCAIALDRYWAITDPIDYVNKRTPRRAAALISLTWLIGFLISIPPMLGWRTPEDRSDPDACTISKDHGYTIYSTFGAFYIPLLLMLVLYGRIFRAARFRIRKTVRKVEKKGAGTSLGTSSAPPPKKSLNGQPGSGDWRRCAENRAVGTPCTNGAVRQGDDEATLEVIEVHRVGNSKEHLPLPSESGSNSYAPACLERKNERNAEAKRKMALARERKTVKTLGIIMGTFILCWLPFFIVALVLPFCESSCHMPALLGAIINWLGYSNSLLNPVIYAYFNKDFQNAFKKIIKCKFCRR
Nature of the assay: displacement of [3H] 8-OH DPAT from the 5-HT1A serotonin receptor (procedure of Hall et al.). To be noted: for IC50: [3H] 8-OH DPAT displacement, read-out: Affinity for 5HT1A Receptor IC50; for inhibition at 0.1 µM / inhibition at 1 µM: read-out: Affinity for 5HT1A Receptor % Inhibition. The format is binding.
From the text: 8-OH DPAT (dipropylaminotetralin) from the 5-HT1A serotonin receptor by the procedure of Hall et al., J. Neurochem.

Take `COc1ccccc1N1CCN(CC(Cc2ccccc2)C(=O)NC(C)(C)C)CC1` (racemic) [Example 3, N-Tertiary-butyl 2-[[4-(2-methoxyphenyl)piperazinyl]methyl]-3-phenyl-propanamide]: the inhibition at 10 µM at D2 dopamine receptor (at 10 µM) was 38%. In assay [1], the concentration for half-maximal inhibition (IC50) was 11.4 nM, the inhibition at 0.1 µM is 90% and the inhibition at 1 µM is 100%.
For `COc1ccccc1N1CCN(CCC(=O)NC2(C)CCCCC2)CC1` [Example 4, 4-(2-Methoxyphenyl)-N-(1-methylcyclohexyl)-1-piperazinepropanamide], in assay [1], the inhibition at 0.1 µM was determined as 56%.
As for `COc1ccccc1N1CCN(CC(C(=O)NC(C)(C)C)c2ccccc2)CC1` (racemic) [Example 2, N-Tertiary-butyl 3-[4-(2-methoxyphenyl)piperazinyl]-2-phenyl-propanamide], the inhibition at 0.1 µM on D2 dopamine receptor (at 0.1 µM) worked out at 8%; in assay [1], 69%. The inhibition at 1 µM came out at 32% on D2 dopamine receptor (at 1 µM) and 86% in assay [1]. Besides, the IC50 in assay [1] stood at 25 nM.
Consider `COc1ccccc1N1CCN(CCC(=O)NC(C)(C)C)CC1` [Example 6, N-(1,1-Dimethylethyl)-3-[4-(2-methoxyphenyl)-1-piperazinyl]-propanamide], for which, in assay [1], the half-inhibitory concentration (IC50) came to 287 nM, the inhibition at 0.1 µM was 18% and the inhibition at 1 µM amounted to 72%.

Values taken from patent publication EP0395313B1, “Tertiary alkyl functionalized piperazine derivatives” (AMERICAN HOME PRODUCTS CORPORATION, priority 1989, dated 1990).
